Test results as given in PubChem BioAssay AID2060502 (Molecular Pharmacology Branch, DTP, NCI, 2025).

Test system: 885724-159-R-J1-PDC complex spheroid viability
Experiment: Anticancer human tumor 885724-159-R-J1-PDC patient-derived pancreatic adenocarcinoma cell line growth inhibition [GQUAD]
Settings: for IC50: curve of first compound; for viability, T/C: stronger effect = lower value
Method in brief: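 Multi-cell-type spheroids of tumor cells with HUVEC and mesenchymal stem cells, treated with drug combinations. Concentrations descend in half-log steps from near clinical Cmax, or from 10 microM where Cmax is unknown; viability read-out.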
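Further: spheroids exposed to agents for seven days before readout.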
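Wherever viability, T/C is given: percent of vehicle control viability where 100% = DMSO wells.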

## COc1cc(C2c3cc4c(cc3C(OC3OC5COC(C)OC5C(O)C3O)C3COC(=O)C23)OCO4)cc(OC)c1O (configuration not stated) + Cc1cnc(CNC(=O)c2c(=O)c3ccc(N4CCCN(C)CC4)nc3n3c2sc2ccccc23)cn1
Second compound 0.0316 µM
  IC50: > 10 µM
Second compound 0.1 µM
  IC50: > 10 µM
Second compound 0.316 µM
  IC50: > 10 µM
Second compound 1 µM
  IC50: > 10 µM
Second compound 3.16 µM
  IC50: > 10 µM
Second compound 10 µM
  IC50: > 10 µM
Second compound 0.0316 µM, first compound 0.0316 µM
  viability, T/C: 113%
Second compound 0.0316 µM, first compound 0.1 µM
  viability, T/C: 98.3%
Second compound 0.0316 µM, first compound 0.316 µM
  viability, T/C: 101%
Second compound 0.0316 µM, first compound 1 µM
  viability, T/C: 91.5%
Second compound 0.0316 µM, first compound 3.16 µM
  viability, T/C: 84.5%
Second compound 0.0316 µM, first compound 10 µM
  viability, T/C: 82.4%
Second compound 0.1 µM, first compound 0.0316 µM
  viability, T/C: 116%
Second compound 0.1 µM, first compound 0.1 µM
  viability, T/C: 107%
Second compound 0.1 µM, first compound 0.316 µM
  viability, T/C: 90.2%
Second compound 0.1 µM, first compound 1 µM
  viability, T/C: 100%
Second compound 0.1 µM, first compound 3.16 µM
  viability, T/C: 95.2%
Second compound 0.1 µM, first compound 10 µM
  viability, T/C: 81.9%
Second compound 0.316 µM, first compound 0.0316 µM
  viability, T/C: 108%
Second compound 0.316 µM, first compound 0.1 µM
  viability, T/C: 105%
Second compound 0.316 µM, first compound 0.316 µM
  viability, T/C: 102%
Second compound 0.316 µM, first compound 1 µM
  viability, T/C: 91.1%
Second compound 0.316 µM, first compound 3.16 µM
  viability, T/C: 84.8%
Second compound 0.316 µM, first compound 10 µM
  viability, T/C: 79.3%
Second compound 1 µM, first compound 0.0316 µM
  viability, T/C: 105%
Second compound 1 µM, first compound 0.1 µM
  viability, T/C: 87.2%
Second compound 1 µM, first compound 0.316 µM
  viability, T/C: 97.8%
Second compound 1 µM, first compound 1 µM
  viability, T/C: 89.6%
Second compound 1 µM, first compound 3.16 µM
  viability, T/C: 84.8%
Second compound 1 µM, first compound 10 µM
  viability, T/C: 76.1%
Second compound 3.16 µM, first compound 0.0316 µM
  viability, T/C: 79.8%
Second compound 3.16 µM, first compound 0.1 µM
  viability, T/C: 81.4%
Second compound 3.16 µM, first compound 0.316 µM
  viability, T/C: 87.6%
Second compound 3.16 µM, first compound 1 µM
  viability, T/C: 84.2%
Second compound 3.16 µM, first compound 3.16 µM
  viability, T/C: 83.5%
Second compound 3.16 µM, first compound 10 µM
  viability, T/C: 71.1%
Second compound 10 µM, first compound 0.0316 µM
  viability, T/C: 81.7%
Second compound 10 µM, first compound 0.1 µM
  viability, T/C: 79.5%
Second compound 10 µM, first compound 0.316 µM
  viability, T/C: 76.7%
Second compound 10 µM, first compound 1 µM
  viability, T/C: 82.4%
Second compound 10 µM, first compound 3.16 µM
  viability, T/C: 78.3%
Second compound 10 µM, first compound 10 µM
  viability, T/C: 70.7%
